Experiment: Drug stability in biological fluid (LC-MS/MS method validation)
Assay type: in vitro ADME
Conditions: human plasma, LQC and HQC; freshly prepared, post-processing (auto-injector, 73:43 hours), short-term (72:21 hours), freeze-thaw (4 cycles) at -20 °C and -70 °C, long-term 90 days at -20 °C and -70 °C; demonstrating stability
Method: criteria for RE and CV must not exceed 15% for QC and 20% for LLOQ. All stability assays were performed to cover the conditions anticipated for handling real samples: freshly prepared, post-processing, short-term, freeze–thaw, and long-term were evaluated at concentrations of LQC and HQC. RE and CV were used to check possible variations.
2.4. Determination of Etodolac Pharmacokinetic
Following Food and Drug Administration (FDA) guidelines, blood samples were drawn up to a period of three to ﬁve times the terminal elimination half-life (t1/2), and the mean AUC0–t/AUC0–∞ ratio was required to be higher than 80%. The area under the concentration–time curve (AUC0–t) was calculated from time 0 to time t. The total area under the curve (AUC0–∞) was obtained up to […], and extrapolations were performed using the last measurable concentration and the terminal elimination rate constant (Ke). The terminal elimination rate constant, Ke, was estimated from the slope of the terminal […] of the plasma of the etodolac concentration–time curve (by means of the linear regression method) adjusted in the last three values. The terminal elimination half-life, t1/2, was then obtained as 0.693/Ke. […]

CCc1cccc2c3c([nH]c12)C(CC)(CC(=O)O)OCC3 (stereo not shown) [Etodolac]
drug stability in biological fluid: precision and accuracy values: below 15%

Reference: paper PMC11768370, “Etodolac Single Dose Metabolic Profile Elucidation: Pharmacokinetics and Adverse Events in Healthy Volunteers” (Pharmaceuticals, 2025)
